Tested on: Eschericia coli strain ATCC25922
Experiment: standard microdilution assay to determine minimum inhibitory concentrations (MICs)
Format: cell-based
Conditions: Escherichia coli, read-out: E. coli ATCC25922 MIC
Experimental: Minimum inhibitory concentrations (MICs) are determined by the microdilution method, typically in a final volume of 100 microliters, according to protocols outlined by The Clinical and Laboratory Standards Institute [CLSI; formerly the National Committee for Clinical Laboratory Standards (NCCLS)]. See CLSI: Methods for dilution antimicrobial susceptibility tests for bacteria that grow aerobically; approved standard-fifth edition. Wayne, Pa.: NCCLS; 2000. The assays can be also be performed in microtiter trays according to conventional methodologies as published by the CLSI. See CLSI. Methods for Dilution Antimicrobial Susceptibility Tests for Bacteria That Grow Aerobically; Approved Standard-Seventh Edition. CLSI Document M7-A7 [ISBN 1-56238-587-9] CLSI, 940 West Valley Road, Suite 1400, Wayne Pa. 19087-1898 USA, 2006).
The compounds of the present invention were tested for antimicrobial activity. The compounds were run against Eschericia coli strain ATCC25922 using a standard microdilution assay to determine minimum inhibitory concentrations (MICs). […] A “N/A” means that data is unavailable. It will be recognized by one skilled in the art that the compounds can be assessed against other bacterial organisms and that the presentation of data for activity against Eschericia coli is illustrative and in no way is intended to limit the scope of the present invention. The compounds of the present invention can be assayed against a range of other microorganisms depending upon the performance activity desired to be gathered. Furthermore, the “+”, “−”, and “N/A” representation and the selection of a cutoff value of 16 micrograms/ml is also illustrative and in no way is intended to limit the scope of the present invention.

SMILES | MIC [µg/mL]
NCCCN1CCCC(n2cc3c(nc2=O)Nc2cc(C(=O)N4CCC[C@H](N)C4)ccc2O3)CC1 (stereo partly drawn) [Compound 870] | > 16
NCCCN1CCC(n2cc3c(nc2=O)Nc2cc(C4CCN(C(=O)CN(Cc5ccc(F)c(F)c5)C5CCNCC5)CC4)ccc2O3)CC1 [Compound 748] | > 16
N=C(N)NCCCN1CCC(n2cc3c(nc2=O)Nc2cc(C(=O)NCCCN4CCCC4=O)ccc2O3)CC1 [Compound 674] | > 16
NCCCNCc1ccc(-n2cc3c(nc2=O)Nc2ccc(-c4cnc(N5CCOCC5)nc4)cc2O3)cc1 [Compound 400] | > 16
N=C(N)NCCNC(=O)C1CCC(n2cc3c(nc2=O)Nc2cc(C4CCNCC4)ccc2O3)CC1 (stereo not drawn) [Compound 1237] | < 16
N=C(N)NCCCN1CCC(n2cc3c(nc2=O)Nc2cc(C(=O)NCCc4nc5ccccc5[nH]4)ccc2O3)CC1 [Compound 641] | > 16
N=C(N)NCCCN1CCC(n2cc3c(nc2=O)Nc2cc(C4CCN(C(=O)Nc5cc(F)c(F)cc5F)CC4)ccc2O3)CC1 [Compound 782] | > 16
NC1CCC(n2cc3c(nc2=O)Nc2cc(CC(=O)NCCCN4CCNCC4)ccc2O3)CC1 (stereo not drawn) [Compound 903] | > 16
O=C(CCN1CCNCC1)NC1CCC(n2cc3c(nc2=O)Nc2cc(C4CCNCC4)ccc2O3)CC1 (stereo not drawn) [Compound 1192] | > 16
N=C(N)NCCCN1CCC(n2cc3c(nc2=O)Nc2cc(C(=O)Nc4ccccc4OC(F)(F)F)ccc2O3)CC1 [Compound 675] | > 16
NCCCNCc1ccc(-c2cn3c(=O)cc(Cc4ccc5c(c4)OCO5)[nH]c3nc2=O)cc1 [Compound 380] | > 16
N=C(N)NCCCN1CCCC(n2cc3c(nc2=O)Nc2cc(C4CCN(C(=O)CN)CC4)ccc2O3)CC1 (stereo not drawn) [Compound 793] | < 16
N=C(N)NCCCNC1CCC(n2cc3c(nc2=O)Nc2cc(C4CCN(C(=O)C5(N)CCCC5)CC4)ccc2O3)CC1 (stereo not drawn) [Compound 783] | < 16
NC[C@H]1CC[C@H](n2cc3c(nc2=O)Nc2c(OCCNC(=O)NCc4ccccc4)cccc2O3)CC1 [Compound 4002c] | > 16
NCCCN1CC=C(c2cnc3n(CCCN)c(-c4ccc(F)cc4)cn3c2=O)CC1 [Compound 568] | > 16
N=C(N)NCCCN1CCC(n2cc3c(nc2=O)Nc2cc(C4CCN(S(=O)(=O)c5cccnc5)CC4)ccc2O3)CC1 [Compound 738] | > 16
NCCCNCc1ccc(-c2cn3c(=O)cc(Cc4cccc([N+](=O)[O-])c4)[nH]c3nc2=O)cc1 [Compound 447] | > 16
N=C(N)NCCCN1CCC(n2cc3c(nc2=O)Nc2cc(C(=O)Nc4ncn[nH]4)ccc2O3)CC1 [Compound 686] | > 16
Cn1cnc(S(=O)(=O)N2CCC(c3ccc4c(c3)Nc3nc(=O)n(C5CCN(CCCNC(=N)N)CC5)cc3O4)CC2)c1 [Compound 681] | > 16
NC[C@H]1CC[C@H](n2cc3c(nc2=O)Nc2c(OCCCN4CCNCC4)cccc2O3)CC1 [Compound 1441] | > 16
NCCCN1CC=C(c2cnc3[nH]c(-c4ccc(F)cc4)cn3c2=O)CC1 [Compound 569] | > 16
NCCCNCc1ccc(-c2cn3c(=O)cc(Cc4ccccc4OC(F)(F)F)[nH]c3nc2=O)cc1 [Compound 426] | > 16

SMILES | MIC [µg/mL]
NCCCNCc1ccc(-c2cn3c(=O)cc(Cc4cc(F)c(F)cc4F)[nH]c3nc2=O)cc1 [Compound 469] | > 16
NCCCCN1CCCC(n2cc3c(nc2=O)Nc2ccccc2O3)CC1 (stereo not drawn) [Compound 604] | > 16
CN(C)CC(=O)N1CCC(c2ccc3c(c2)Nc2nc(=O)n(C4CCN(CCCNC(=N)N)CC4)cc2O3)CC1 [Compound 691] | > 16
NCCCNC1CCC(n2cc3c(nc2=O)Nc2cc(-c4ccc(C(F)(F)F)nc4)ccc2O3)CC1 (stereo not drawn) [Compound 672] | > 16
NC[C@H]1CC[C@H](n2cc3c(nc2=O)Nc2c(OCCCOCc4ccccc4)cccc2O3)CC1 [Compound 4003c] | > 16
NCCCNCc1ccc(-c2cn3c(=O)cc(Cc4ccc(Cl)c(Cl)c4)[nH]c3nc2=O)cc1 [Compound 430] | > 16
NCCCCCN1CCCC(n2cc3c(nc2=O)Nc2ccccc2O3)CC1 (stereo not drawn) [Compound 544] | > 16
N=C(N)NCCCCCN1CCCC(n2cc3c(nc2=O)Nc2ccccc2O3)CC1 (stereo not drawn) [Compound 576] | > 16
NC1CCC(n2cc3c(nc2=O)Nc2cc(C4CCN(CC(=O)N(Cc5ccc6[nH]cnc6c5)C5CCNCC5)CC4)ccc2O3)CC1 (stereo not drawn) [Compound 1096] | > 16
NCCCNC(=O)[C@H]1CC[C@H](n2cc3c(nc2=O)Nc2c(OCCN)cccc2O3)CC1 [Compound 4007c] | > 16
NC1CCC(Cn2cc3c(nc2=O)Nc2cc(C4CCNCC4)ccc2O3)CC1 (stereo not drawn) [Compound 1368] | > 16
CN1CCN(CCCNC(=O)c2ccc3c(c2)Nc2nc(=O)n(C4CCC(NCCCNC(=N)N)CC4)cc2O3)CC1 (stereo not drawn) [Compound 774] | < 16
N=C(N)NCCCNC1CCC(n2cc3c(nc2=O)Nc2cc(C4CCNCC4)ccc2O3)CC1 (stereo not drawn) [Compound 993] | < 16
NCCCNCc1ccc(-n2cc3c(nc2=O)Nc2ccc(CCc4ccc(F)cc4)cc2O3)cc1 [Compound 558] | > 16
N=C(N)NCCCN1CCC(n2cc3c(nc2=O)Nc2cc(C(=O)NCCCN4CCOCC4)ccc2O3)CC1 [Compound 642] | > 16
NCCCN(CCCN)C1CCC(n2cc3c(nc2=O)Nc2cc(C4CCNCC4)ccc2O3)CC1 (stereo not drawn) [Compound 1244] | < 16
N=C(N)NCCCN1CCCC(n2cc3c(nc2=O)Nc2cc(C(=O)NCCC4CCNCC4)ccc2O3)CC1 (stereo not drawn) [Compound 708] | < 16
CN(C)CC(=O)N1CCC(c2ccc3c(c2)Nc2nc(=O)n(C4CCC(NCCCNC(=N)N)CC4)cc2O3)CC1 (stereo not drawn) [Compound 751] | < 16
N=C(N)NCCCN1CCC(n2cc3c(nc2=O)Nc2cc(C(=O)NCC(F)(F)F)ccc2O3)CC1 [Compound 639] | > 16
N=C(N)NCCC(=O)N(CCCN)C1CCC(n2cc3c(nc2=O)Nc2cc(C4CCNCC4)ccc2O3)CC1 (stereo not drawn) [Compound 1145] | < 16
N=C(N)NCCCNC1CCC(n2cc3c(nc2=O)Nc2cc(C(=O)NCCCN4CCNCC4)ccc2O3)CC1 (stereo not drawn) [Compound 732] | < 16
COc1cccc2c1Nc1nc(=O)n([C@H]3CC[C@H](CN)CC3)cc1O2 [Compound 4000c] | > 16

SMILES | MIC [µg/mL]
NCCCNCc1ccc(-c2cn3c(=O)cc(-c4ccc(Cl)c(Cl)c4)[nH]c3nc2=O)cc1 [Compound 390] | > 16
N=C(N)NCCCN1CCC(n2cc3c(nc2=O)Nc2cc(C4CCN(C(=O)Nc5ccc(F)c(Cl)c5)CC4)ccc2O3)CC1 [Compound 730] | > 16
O=C(NCCCN1CCNCC1)c1ccc2c(c1)Nc1nc(=O)n(CCO)cc1O2 [Compound 858] | > 16
N=C(N)NCCCNC1CCC(n2cc3c(nc2=O)Nc2cc(C4=CCNCC4)ccc2O3)CC1 (stereo not drawn) [Compound 938] | < 16
NCCCNCc1ccc(-c2cn3c(=O)cc(-c4cc(F)c(F)cc4F)[nH]c3nc2=O)cc1 [Compound 362] | > 16
N=C(N)NCCCN1CCCC(n2cc3c(nc2=O)Nc2cc(-c4ccc(N5CCOCC5)cc4)ccc2O3)CC1 (stereo not drawn) [Compound 664] | > 16
NCCCN1CCC(n2cc3c(nc2=O)N[C@@H]2CCCC[C@H]2O3)CC1 [Compound 929] | > 16
N#Cc1cccc(-c2ccc3c(c2)Nc2nc(=O)n(C4CCCN(CCCNC(=N)N)CC4)cc2O3)c1 (stereo not drawn) [Compound 676] | > 16
N=C(N)NCCCNC(=O)C1CCC(n2cc3c(nc2=O)Nc2cc(C4CCNCC4)ccc2O3)CC1 (stereo not drawn) [Compound 1236] | < 16
N=C(N)NCC(=O)N1CCC(c2ccc3c(c2)Nc2nc(=O)n(C4CCCN(CCCN)CC4)cc2O3)CC1 (stereo not drawn) [Compound 832] | < 16
Cn1cnc(S(=O)(=O)N2CCC(c3ccc4c(c3)Nc3nc(=O)n(C5CCC(NCCCNC(=N)N)CC5)cc3O4)CC2)c1 (stereo not drawn) [Compound 750] | > 16
COC(=O)c1ccc2c(c1)Nc1nc(=O)n(C3CCN(CCCN)CC3)cc1O2 [Compound 606] | > 16
NCCCN(CCCN)CC1CCC(n2cc3c(nc2=O)Nc2cc(C4CCNCC4)ccc2O3)CC1 (stereo not drawn) [Compound 1370] | < 16
NCCCN1CCCC(n2cc3c(nc2=O)Nc2ccccc2O3)CC1 (stereo not drawn) [Compound 598] | > 16
N=C(N)NCCCN[C@H]1CC[C@H](n2cc3c(nc2=O)Nc2cc(CCN4CCOCC4)ccc2O3)CC1 [Compound 956] | < 16
N=C(N)NCCCN1CCCC(n2cc3c(nc2=O)Nc2cc(C(=O)NCCCN4CCOCC4)ccc2O3)CC1 (stereo not drawn) [Compound 658] | > 16
NCCCCCN1CCC(n2cc3c(nc2=O)Nc2ccccc2O3)CC1 [Compound 557] | > 16
COc1ccc(-c2cc(=O)n3cc(-c4ccc(CNCCCN)cc4)c(=O)nc3[nH]2)cc1 [Compound 378] | > 16
N=C(N)NCCCN1CCC(n2cc3c(nc2=O)Nc2cc(-c4ccc(C(F)(F)F)nc4)ccc2O3)CC1 [Compound 690] | > 16
N[C@@H]1CCCN(C(=O)c2ccc3c(c2)Nc2nc(=O)n(C4CCCNCC4)cc2O3)C1 (stereo partly drawn) [Compound 908] | > 16
NCCCNCc1ccc(-c2cn3c(=O)cc(Cc4ccc(C(F)(F)F)cc4)[nH]c3nc2=O)cc1 [Compound 367] | > 16
N=C(N)NCCCNC1CCC(n2cc3c(nc2=O)Nc2cc(C4CCN(C(=O)CN(Cc5ccc(F)c(F)c5)C5CCNCC5)CC4)ccc2O3)CC1 (stereo not drawn) [Compound 753] | < 16
